From paper PMC12471299, “Secondary Metabolites of the Marine Sponge-Derived Fungus Aspergillus subramanianii 1901NT-1.40.2 and Their Antimicrobial and Anticancer Activities” (Marine Drugs, 2025)
≈ marks a conversion by molar mass, not a printed value. Like-named read-outs stand apart in the source and are kept apart here.

Experiments:
E. faecalis ATCC 29212 = system: E. faecalis ATCC 29212; set-up: method as in PMID 29642369; settings: cited from earlier work
[1] = system: malignant glioma T98G cells; set-up: method as in PMID 29642369; settings: cited from earlier work
MCF-7 cells = system: MCF-7 cells; set-up: method as in PMID 29642369; settings: cited from earlier work
H9c2 cardiomyocytes = assay: Cell viability assay (MTT); type: cell-based, rat
Procedure, shortened: (§1)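 Cells were seeded (H9c2 3 × 10^3, MCF-10A and MDA-MB-231 5 × 10^3, HaCaT 1 × 10^4 cells/well), left 24 h, then exposed to compounds up to 100 µM for 24 h or 48 h at 37 °C, 5% CO2. MTT read-out; viability given as percent of DMSO control.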

[2] = Cell viability assay (MTT); type: cell-based, rat; settings: rat, H9c2 cardiomyocytes, read-out: Cytotoxicity IC50; for IC50 at 24 h: H9c2, 24 h; for IC50 at 48 h: H9c2, 48 h
Procedure, shortened: as §1

[3] = system: MDA-MB-231 breast cancer cells; assay: Cell viability assay (MTT); type: cell-based, human
Procedure, shortened: as §1

[4] = system: MCF-10A breast epithelial cells; assay: Cell viability assay (MTT); type: cell-based, human; settings: MCF10A
Procedure, shortened: as §1

[5] = system: MCF-7 breast cancer cells; assay: Cell viability assay (MTT); type: cell-based, human
[6] = Cell viability assay (MTT); type: cell-based, human; settings: human, read-out: Cytotoxicity IC50
Procedure, shortened: as §1

S. aureus ATCC 29213 = system: S. aureus ATCC 29213; set-up: method as in PMID 29642369; settings: cited from earlier work
[7] = system: methicillin-resistant S. aureus (MRSA); set-up: method as in PMID 29642369; settings: cited from earlier work
HT29 cells = system: HT29 cells; set-up: method as in PMID 29642369; settings: cited from earlier work
[8] = system: malignant glioma U251 cells; set-up: method as in PMID 29642369; settings: cited from earlier work
Candida albicans KMM 455 = assay: Antimicrobial assay, growth inhibition (optical density); type: cell-based; settings: C. albicans, 18 h; for MIC50: Candida albicans, KMM455, 18 h
Procedure, shortened: (§2)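 Strains were precultured on Mueller Hinton agar at 37 °C for 24 h, then exposed to compound at up to 100 µM. Growth was read as OD620 after 18 h; 18 h biofilm formation was quantified with MTT at OD570. Values are MIC50, the lowest concentration cutting growth or biofilm by 50% versus 1% DMSO/PBS control.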

[9] = system: Staphylococcus aureus ATCC 21027; assay: as above; type: cell-based; settings: S. aureus, 18 h; for MIC50: Staphylococcus aureus, ATCC21027, 18 h
Procedure, shortened: as §2

[10] = MCF-7 breast cancer cells, MCF-7, 24 h
[11] = MCF-7 breast cancer cells, MCF-7, 48 h
[12] = MCF-10A breast epithelial cells, MCF10A, 24 h
[13] = MCF-10A breast epithelial cells, MCF10A, 48 h
[14] = MDA-MB-231 breast cancer cells, MDA-MB-231, 24 h
[15] = MDA-MB-231 breast cancer cells, MDA-MB-231, 48 h

## COc1c(OC)c(-c2c[nH]c3ccc(O)cc23)c(OC)c(OC)c1-c1c[nH]c2ccccc12 [Compound 8, petromurin C]
E. faecalis ATCC 29212
  antibacterial activity: did not inhibit the growth
[1]; T98G cells
  effectiveness: not effective
MCF-7 cells; MCF-7 cells, read-out: IC50, cell viability
  IC50: 94.8 µM
H9c2 cardiomyocytes; H9c2, 24 h, 1.0 µM
  cell viability: 100.9 ± 1.7 % of control
H9c2 cardiomyocytes; H9c2, 24 h, 10.0 µM
  cell viability: 95.9 ± 2.3 % of control
H9c2 cardiomyocytes; H9c2, 24 h, 100.0 µM
  cell viability: 57.4 ± 8.5 % of control
H9c2 cardiomyocytes; H9c2, 48 h, 1.0 µM
  cell viability: 101.6 ± 2.2 % of control
H9c2 cardiomyocytes; H9c2, 48 h, 10.0 µM
  cell viability: 79.8 ± 4.6 % of control
H9c2 cardiomyocytes; H9c2, 48 h, 100.0 µM
  cell viability: 55.8 ± 5.5 % of control
[2]
  IC50 at 24 h: > 100 µM
  IC50 at 48 h: > 100 µM
[3]; MDA-MB-231, 24 h, 1.0 µM
  cell viability: 89.4 ± 2.4 % of control
[3]; MDA-MB-231, 24 h, 10.0 µM
  cell viability: 103.6 ± 2.2 % of control
[3]; MDA-MB-231, 24 h, 100.0 µM
  cell viability: 63.7 ±4.8 % of control
[3]; MDA-MB-231, 48 h, 1.0 µM
  cell viability: 102.9 ± 0.5 % of control
[3]; MDA-MB-231, 48 h, 10.0 µM
  cell viability: 89.5 ± 3.1 % of control
[3]; MDA-MB-231, 48 h, 100.0 µM
  cell viability: 38.6 ± 1.7 % of control
[4]; 24 h, 1.0 µM
  cell viability: 91.9 ± 9.5 % of control
[4]; 24 h, 10.0 µM
  cell viability: 81.4 ± 1.0 % of control
[4]; 24 h, 100.0 µM
  cell viability: 52.0 ± 4.0 % of control
[4]; 48 h, 1.0 µM
  cell viability: 95.3 ± 3.4 % of control
[4]; 48 h, 10.0 µM
  cell viability: 92.1 ± 2.1 % of control
[4]; 48 h, 100.0 µM
  cell viability: 45.7 ± 6.6 % of control
[5]; MCF-7, 24 h, 1.0 µM
  cell viability: 105.4 ± 5.9 % of control
[5]; MCF-7, 24 h, 10.0 µM
  cell viability: 92.8 ± 3.0 % of control
[5]; MCF-7, 24 h, 100.0 µM
  cell viability: 53.7 ± 6.8 % of control
[5]; MCF-7, 48 h, 1.0 µM
  cell viability: 77.7 ± 3.7 % of control
[5]; MCF-7, 48 h, 10.0 µM
  cell viability: 70.6 ± 8.5 % of control
[5]; MCF-7, 48 h, 100.0 µM
  cell viability: 28.6 ± 4.3 % of control
[6]; HaCaT keratinocytes, 24 h
  IC50 at 24 h: > 100 µM
[6]; HaCaT keratinocytes, 48 h
  IC50 at 48 h: 80.5 ± 1.8 µM
[6]; [10]
  IC50 at 24 h: > 100 µM
[6]; [11]
  IC50 at 48 h: 61.5 ± 1.2 µM
[6]; [12]
  IC50 at 24 h: ≥ 100 µM
[6]; [13]
  IC50 at 48 h: 91 ± 4.1 µM
[6]; [14]
  IC50 at 24 h: > 100 µM
[6]; [15]
  IC50 at 48 h: 79.9 ± 1.2 µM
S. aureus ATCC 29213
  antibacterial activity: did not inhibit the growth
[7]; MRSA S. aureus 66/1, with oxacillin
  effect with oxacillin: synergistic effect
HT29 cells; read-out: IC50, cell viability
  IC50: 34.8 µM
[8]; U251 cells
  effectiveness: not effective
Candida albicans KMM 455
  Growth inhibition, MIC50: 34.14 ± 2.1 µM
  MIC50: 26 to 52 µM (≈ 11.6 to 23.1 µg/mL)
[9]
  Growth inhibition, MIC50: 26.74 ± 1.98 µM
  MIC50: 26 to 52 µM (≈ 11.6 to 23.1 µg/mL)

## COC1=C(c2c[nH]c3ccccc23)C(=O)C(CC=C(C)C)=C(c2c[nH]c3ccccc23)C1=O [Compound 6, kumbicin D]
E. faecalis ATCC 29212
  antibacterial activity: not active
[1]; T98G, at 100 µM
  effect on cells: weak effects
MCF-7 cells; MCF-7, at 100 µM
  effect on cells: weak effects
H9c2 cardiomyocytes; H9c2, 24 h, 1.0 µM
  cell viability: 104.0 ± 12.9 % of control
H9c2 cardiomyocytes; H9c2, 24 h, 10.0 µM
  cell viability: 92.9 ± 6.1 % of control
H9c2 cardiomyocytes; H9c2, 24 h, 100.0 µM
  cell viability: 30.9 ± 2.9 % of control
H9c2 cardiomyocytes; H9c2, 48 h, 1.0 µM
  cell viability: 99.7 ± 3.7 % of control
H9c2 cardiomyocytes; H9c2, 48 h, 10.0 µM
  cell viability: 88.6 ± 2.3 % of control
H9c2 cardiomyocytes; H9c2, 48 h, 100.0 µM
  cell viability: 21.6 ± 2.2 % of control
[2]
  IC50 at 24 h: 72.2 ± 4.1 µM
  IC50 at 48 h: 65.4 ± 2.1 µM
[3]; MDA-MB-231, 24 h, 1.0 µM
  cell viability: 93.6 ± 4.8 % of control
[3]; MDA-MB-231, 24 h, 10.0 µM
  cell viability: 84.5 ± 6.7 % of control
[3]; MDA-MB-231, 24 h, 100.0 µM
  cell viability: 32.7 ± 5.2 % of control
[3]; MDA-MB-231, 48 h, 1.0 µM
  cell viability: 100.6 ± 2.2 % of control
[3]; MDA-MB-231, 48 h, 10.0 µM
  cell viability: 90.8 ± 1.2 % of control
[3]; MDA-MB-231, 48 h, 100.0 µM
  cell viability: 14.7 ± 0.6 % of control
[4]; 24 h, 1.0 µM
  cell viability: 101.6 ± 3.1 % of control
[4]; 24 h, 10.0 µM
  cell viability: 92.4 ± 3.6 % of control
[4]; 24 h, 100.0 µM
  cell viability: 23.9 ± 6.2 % of control
[4]; 48 h, 1.0 µM
  cell viability: 98.4 ± 4.5 % of control
[4]; 48 h, 10.0 µM
  cell viability: 87.4 ± 2.7 % of control
[4]; 48 h, 100.0 µM
  cell viability: 13.7 ± 3.2 % of control
[5]; MCF-7, 24 h, 1.0 µM
  cell viability: 107.6 ± 6.5 % of control
[5]; MCF-7, 24 h, 10.0 µM
  cell viability: 77.7 ± 7.5 % of control
[5]; MCF-7, 24 h, 100.0 µM
  cell viability: 29.9 ± 0.8 % of control
[5]; MCF-7, 48 h, 1.0 µM
  cell viability: 84.6 ± 9.4 % of control
[5]; MCF-7, 48 h, 10.0 µM
  cell viability: 76.8 ± 3.8 % of control
[5]; MCF-7, 48 h, 100.0 µM
  cell viability: 12.1 ± 2.7 % of control
[6]; HaCaT keratinocytes, 24 h
  IC50 at 24 h: > 100 µM
[6]; HaCaT keratinocytes, 48 h
  IC50 at 48 h: 49.4 ± 1.2 µM
[6]; [10]
  IC50 at 24 h: 62.2 ± 2.2 µM
[6]; [11]
  IC50 at 48 h: 47.3 ± 1.7 µM
[6]; [12]
  IC50 at 24 h: 65.7 ± 1.9 µM
[6]; [13]
  IC50 at 48 h: 55.6 ± 2.3 µM
[6]; [14]
  IC50 at 24 h: 74.4 ± 0.6 µM
[6]; [15]
  IC50 at 48 h: 58.2 ± 2 µM
S. aureus ATCC 29213
  antibacterial activity: not active
[7]; MRSA
  antibacterial activity: not active
HT29 cells; HT29, at 100 µM
  effect on cells: weak effects
[8]; U251, at 100 µM
  effect on cells: weak effects
Candida albicans KMM 455
  Growth inhibition, MIC50: 10.44 ± 1.07 µM
  MIC50: 7 to 10 µM (≈ 3.06 to 4.37 µg/mL)
[9]
  Growth inhibition, MIC50: 9.38 ± 0.77 µM
  MIC50: 7 to 11 µM (≈ 3.06 to 4.8 µg/mL)
